According to paper PMC2897950 (Cellular microbiology, 2010):

Target: T1, EhSir2a (EhSir2a-HH) (Entamoeba histolytica, UniProt C4LSH3)
T1 sequence (C4LSH3 1-383): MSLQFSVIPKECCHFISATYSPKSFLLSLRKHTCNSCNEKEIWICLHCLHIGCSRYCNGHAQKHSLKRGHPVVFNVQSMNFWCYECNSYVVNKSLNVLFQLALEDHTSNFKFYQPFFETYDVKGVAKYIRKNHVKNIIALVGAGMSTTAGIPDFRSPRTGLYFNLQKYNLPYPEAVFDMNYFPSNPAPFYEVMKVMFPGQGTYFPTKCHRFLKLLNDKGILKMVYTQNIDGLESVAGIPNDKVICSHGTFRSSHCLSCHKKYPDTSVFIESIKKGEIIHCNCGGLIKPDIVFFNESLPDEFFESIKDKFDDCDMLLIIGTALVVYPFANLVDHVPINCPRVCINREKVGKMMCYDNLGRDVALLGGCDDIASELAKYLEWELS
Test: fluorescent deacetylase assay
Assay type: biochemical
Details: 500 µM NAD+, 37 °C, 2 h; co-substrate of deacetylation

With `NC(=O)c1ccc[n+]([C@@H]2O[C@H](COP(=O)(O)OP(=O)(O)OC[C@H]3O[C@@H](n4cnc5c(N)ncnc54)[C@H](O)[C@@H]3O)[C@@H](O)[C@H]2O)c1` [NAD^+] the “fluorescent deacetylase assay (Biomol kit), enzyme on Ni-NTA beads” value was “EhSir2a showed high levels of deacetylase activity when NAD^+ was added”.
